Reference: patent publication US7625713B2, “Process for identifying a ligand that binds to the NEP binding site for the SMR1 pentapeptide” (Institut Pasteur, priority 2000, dated 2009)
Where a SMILES comes first, the peptide text is derived from it.

Columns and labels:
NEP = molecular target: T1, NEP (Rattus norvegicus, UniProt P07861); experiment: Kinetic analysis of inhibition of substance P catabolism by rat renal membranes; type: biochemical
T1 construct: peripheral tissue membrane preparations that are known to be enriched in NEP-peptidase; from tissue; host or cells: rat renal outer medulla/kidney, intestine mucosa, placenta, prostate, dental and bone tissues, submandibular gland (membrane preparations)
T1 sequence (P07861 2-750): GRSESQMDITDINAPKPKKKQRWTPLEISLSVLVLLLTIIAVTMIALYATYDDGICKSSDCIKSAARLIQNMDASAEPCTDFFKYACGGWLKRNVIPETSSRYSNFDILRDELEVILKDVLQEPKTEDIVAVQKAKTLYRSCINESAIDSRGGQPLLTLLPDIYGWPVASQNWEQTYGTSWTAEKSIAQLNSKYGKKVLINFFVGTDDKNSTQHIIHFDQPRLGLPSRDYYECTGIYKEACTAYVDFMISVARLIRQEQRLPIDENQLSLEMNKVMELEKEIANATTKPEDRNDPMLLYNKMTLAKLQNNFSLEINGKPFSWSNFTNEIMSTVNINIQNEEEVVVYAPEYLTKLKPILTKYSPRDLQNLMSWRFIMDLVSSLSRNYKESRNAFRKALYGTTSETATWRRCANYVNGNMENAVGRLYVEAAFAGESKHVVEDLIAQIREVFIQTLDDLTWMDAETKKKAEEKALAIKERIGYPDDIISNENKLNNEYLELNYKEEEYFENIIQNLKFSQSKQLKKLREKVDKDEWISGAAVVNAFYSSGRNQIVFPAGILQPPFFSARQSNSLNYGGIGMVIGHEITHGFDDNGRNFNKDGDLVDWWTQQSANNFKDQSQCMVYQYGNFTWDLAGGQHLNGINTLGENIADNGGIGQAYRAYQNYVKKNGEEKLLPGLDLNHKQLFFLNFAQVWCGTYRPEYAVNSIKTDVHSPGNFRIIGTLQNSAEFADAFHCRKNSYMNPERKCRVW
Protocol: The inhibitory potency of sialophin was measured by using substance P as substrate at concentrations indicated for A and B, and at 14-24 nM (blank triangle) or 56-105 nM (black triangle) for FIG. 5-C. Concentrations of inhibitor for FIG. 5-A and FIG. 5-B were 0 (black circles), 1500 (blank circle) and 4500 nM (blank diamond). Each point of the untransformed and double reciprocal plots represents the mean of 2 independent determinations of duplicate. Experiments were performed at 25° C. in 250 μl Tris-HCl buffer (50 mM pH 7.4) under initial velocity measurement conditions.
In order to determine inhibitor modality, all the measures of initial velocity of the renal enzymatic reaction were plotted versus substrate concentration for several fixed inhibitor concentrations or versus inhibitor concentration for fixed substrate concentrations.

male rats = experiment: Pin pain test; type: in vivo, rat
Protocol: The 3-min test session was performed 5 min after intravenous. rat tail vein administration of sialorphin or its vehicle. Naloxone (0.3 mg per kg body weight) was injected subcutaneously 15 min before sialorphin administration. Time in centre field sector (FIG. 6-C) (central square of the open-field without pin) and activity (FIGS. 6-A and 6-B) in peripheral squares (overlayed with pins) during the 3-min test session. Each value represents the mean±sem of 8 animals per group. […] Control group corresponded to pain response in vehicle-treated rats. 50 μg/kg sialorphin, 100 μg/kg sialorphin, 100 μg/kg sialorphin plus naloxone 0.3 mg/kg.
To extend the insight into the in vivo possible antinociceptive property of sialorphin through enkephalin-degrading enzyme inhibition, its effects were assessed in rat model of pain, i.e. the pin pain test, (Hebert et al. (1999) Physiology & Behavior 67, 99-105) in which the various behavioural parameters of pain responses were recorded with a 3-min cutoff time.
The in vivo activity of sialorphin was tested on the pin pain assay using male rats (350-400 g, Charles Rivers). The experimental device consists in an open-field (45×45×40 cm) which is divided into nine equal squares (150×150 mm), eight of them are peripheral and one is central. The peripheral squares are overlayed with stainless steel pins (2/cm2, length 8 mm and diameter 0.6 mm). The test consisted in placing the rat in the central square of the open-field and recording its different behaviours (cut-off time, 3 min). Two days before the pain test, the rats were familiarised with the experimental device without pins for 20 min, so as to reduce the stress linked to the spatial neophobia. All statistical analyses were carried out using the Statview 5 statistical package.

[1] = 100 μg per kg intravenous, 3-min trial, n=8, mean±sem

Question: For N=C(N)NCCC[C@H](NC(=O)[C@@H]1CCCN1C(=O)[C@H](CC(N)=O)NC(=O)[C@H](Cc1c[nH]cn1)NC(=O)[C@@H](N)CCC(N)=O)C(=O)O [sialorphin, Gln-His-Asn-Pro-Arg] (H-QHNPR-OH; N-terminus and C-terminus assumed), which “raising of the apparent Km of the enzyme for substrate” value (NEP; 0, 1500 and 4500 nM inhibitor, substance P substrate, rat renal membranes) is on record?
Answer: 2-5 fold

Question: What about the inhibitor modality (NEP; untransformed, double-reciprocal and Dixon plots, [3H] substance P, renal membrane, 25° C.) of the same compound?
Answer: competitive inhibition

Question: And the “frequency of crossings peripheral squares” value (male rats; 100 μg per kg intravenous, 3-min trial 5 min after administration, n=8, mean±sem)?
Answer: 11.13±1.43

Question: What about the “number of audible vocalisation responses” value (male rats; [1]) of the same compound?
Answer: 0.25±0.16

Question: What about the “number of escape responses” value (male rats; [1]) of the same compound?
Answer: 0.13±0.13

Question: What about the “rearings on peripheral squares” value (male rats; [1]) of the same compound?
Answer: 3.88±0.83

Question: And the analgesia (male rats; 100 μg/kg given intravenously)?
Answer: 74-97%

Question: What about the “time in the central area of the open-field” value (male rats; sialorphin intravenous alone, second test trial, 3-min test) of the same compound?
Answer: 57.75 ± 21.30 s
